Experimental data from the NIST ThermoML archive (doi:10.1021/je200707b).
± gives the expanded uncertainty stated by the source.

Key:
[1] = xn = mol fraction of the nth substance listed; conditions: 101.3 kPa, Liquid; for viscosity: Falling or rolling sphere viscometry; for mass density: Vibrating tube method
[2] = refractive index (Na D-line) (dimensionless); xn = mol fraction of the nth substance listed; conditions: 298.15 K, 101.3 kPa, Liquid, Standard Abbe refractometry

CC(=O)O.CCCCN [butylammonium acetate] + CCO
[1]
Conditions	mass density, 293.15 K [kg/m3]	mass density, 298.15 K [kg/m3]	mass density, 303.15 K [kg/m3]	mass density, 308.15 K [kg/m3]	mass density, 313.15 K [kg/m3]	viscosity, 293.15 K [mPa·s]	viscosity, 298.15 K [mPa·s]	viscosity, 303.15 K [mPa·s]	viscosity, 308.15 K [mPa·s]	viscosity, 313.15 K [mPa·s]
x1 = 0.0319	805.12 ± 0.38	800.93 ± 0.38	796.71 ± 0.38	792.46 ± 0.38	788.16 ± 0.38	1.644 ± 0.045	1.488 ± 0.041	1.349 ± 0.037	1.226 ± 0.034	1.117 ± 0.031
x1 = 0.0608	817.26 ± 0.39	813.17 ± 0.38	809.04 ± 0.38	804.88 ± 0.38	800.68 ± 0.38	2.184 ± 0.06	1.959 ± 0.054	1.764 ± 0.048	1.593 ± 0.044	1.442 ± 0.04
x1 = 0.0999	831.76 ± 0.39	827.77 ± 0.39	823.74 ± 0.38	819.69 ± 0.38	815.6 ± 0.38	3.042 ± 0.084	2.707 ± 0.074	2.42 ± 0.067	2.171 ± 0.06	1.908 ± 0.052
x1 = 0.1977	860.95 ± 0.39	857.19 ± 0.39	853.35 ± 0.39	849.49 ± 0.39	845.68 ± 0.39	6.773 ± 0.19	5.903 ± 0.16	5.176 ± 0.14	4.557 ± 0.12	4.013 ± 0.11
x1 = 0.2965	883.07 ± 0.4	879.43 ± 0.4	875.76 ± 0.4	872.09 ± 0.4	868.39 ± 0.39	13.92 ± 0.38	11.88 ± 0.33	10.23 ± 0.28	8.831 ± 0.24	7.695 ± 0.21
x1 = 0.4008	901.46 ± 0.4	897.94 ± 0.4	894.4 ± 0.4	890.81 ± 0.4	887.18 ± 0.4	26.61 ± 0.73	22.28 ± 0.61	18.84 ± 0.52	16.06 ± 0.44	13.75 ± 0.38
x1 = 0.5005	915.65 ± 0.41	912.21 ± 0.41	908.76 ± 0.41	905.3 ± 0.4	901.83 ± 0.4	49.22 ± 1.4	40.2 ± 1.1	33.21 ± 0.91	27.76 ± 0.76	23.37 ± 0.64
x1 = 0.6454	932.09 ± 0.41	928.75 ± 0.41	925.39 ± 0.41	922.03 ± 0.41	918.66 ± 0.41	113.11 ± 4.1	90.9 ± 2.9	72.83 ± 2.1	59.18 ± 1.6	48.51 ± 1.3
x1 = 0.8019	945.97 ± 0.42	942.74 ± 0.42	939.48 ± 0.41	936.22 ± 0.41	932.94 ± 0.41	264.17 ± 15	201.81 ± 10	156.42 ± 6.9	122.42 ± 4.7	97.36 ± 3.3
x1 = 0.9009	953.34 ± 0.42	950.15 ± 0.42	946.94 ± 0.42	943.74 ± 0.42	940.53 ± 0.41	475.32 ± 36	347.84 ± 23	260.75 ± 15	197.78 ± 9.9	152.81 ± 6.6

[2]
Conditions	refractive index
x1 = 0.0319	1.3681 ± 0.0011
x1 = 0.0608	1.3731 ± 0.0011
x1 = 0.0999	1.3804 ± 0.0011
x1 = 0.1977	1.3965 ± 0.0011
x1 = 0.2965	1.4073 ± 0.0011
x1 = 0.4008	1.4152 ± 0.0011
x1 = 0.5005	1.4219 ± 0.0011
x1 = 0.6454	1.4292 ± 0.0011
x1 = 0.8019	1.436 ± 0.0011
x1 = 0.9009	1.4396 ± 0.0011

CC(=O)O.CCCCN [butylammonium acetate] + CO
[1]
Conditions	mass density, 293.15 K [kg/m3]	mass density, 298.15 K [kg/m3]	mass density, 303.15 K [kg/m3]	mass density, 308.15 K [kg/m3]	mass density, 313.15 K [kg/m3]	viscosity, 293.15 K [mPa·s]	viscosity, 298.15 K [mPa·s]	viscosity, 303.15 K [mPa·s]	viscosity, 308.15 K [mPa·s]	viscosity, 313.15 K [mPa·s]
x1 = 0.0302	814.76 ± 0.4	810.3 ± 0.4	805.81 ± 0.39	801.29 ± 0.39	796.74 ± 0.39	0.883 ± 0.024	0.82 ± 0.023	0.763 ± 0.021	0.712 ± 0.02	0.666 ± 0.018
x1 = 0.0597	832.65 ± 0.4	828.3 ± 0.4	823.98 ± 0.39	819.63 ± 0.39	815.28 ± 0.39	1.237 ± 0.034	1.141 ± 0.031	1.053 ± 0.029	0.975 ± 0.027	0.905 ± 0.025
x1 = 0.1011	852.44 ± 0.39	848.33 ± 0.39	844.2 ± 0.39	840.05 ± 0.39	835.89 ± 0.39	1.933 ± 0.053	1.759 ± 0.048	1.607 ± 0.044	1.474 ± 0.041	1.357 ± 0.037
x1 = 0.1992	884.85 ± 0.4	881.05 ± 0.4	877.23 ± 0.4	873.38 ± 0.4	869.54 ± 0.4	4.825 ± 0.13	4.283 ± 0.12	3.828 ± 0.11	3.437 ± 0.094	3.099 ± 0.085
x1 = 0.301	906.27 ± 0.4	902.66 ± 0.4	899.04 ± 0.4	895.45 ± 0.4	891.77 ± 0.4	11.1 ± 0.3	9.608 ± 0.26	8.354 ± 0.23	7.294 ± 0.2	6.415 ± 0.18
x1 = 0.4023	920.99 ± 0.41	917.52 ± 0.41	914.03 ± 0.41	910.53 ± 0.41	907.04 ± 0.4	23.22 ± 0.64	19.57 ± 0.54	16.66 ± 0.46	14.34 ± 0.39	12.54 ± 0.34
x1 = 0.4995	931.42 ± 0.41	928.03 ± 0.41	924.64 ± 0.41	921.23 ± 0.41	917.83 ± 0.41	44.76 ± 1.2	36.68 ± 1	30.45 ± 0.84	25.59 ± 0.7	21.65 ± 0.59
x1 = 0.6524	943.29 ± 0.42	940 ± 0.41	936.69 ± 0.41	933.39 ± 0.41	930.08 ± 0.41	115.48 ± 4.3	92.51 ± 3	69.01 ± 2	53.46 ± 1.4	47.61 ± 1.3
x1 = 0.7993	951.52 ± 0.42	948.31 ± 0.42	945.07 ± 0.42	941.83 ± 0.41	938.59 ± 0.41	256.45 ± 15	195.97 ± 9.7	151.07 ± 6.5	118.32 ± 4.4	94.24 ± 3.1
x1 = 0.8988	955.88 ± 0.42	952.69 ± 0.42	949.49 ± 0.42	946.3 ± 0.42	943.09 ± 0.42	418.49 ± 30	312.52 ± 19	242.56 ± 13	183.85 ± 8.8	142.67 ± 6

[2]
Conditions	refractive index
x1 = 0.0302	1.3413 ± 0.0004
x1 = 0.0597	1.3526 ± 0.0004
x1 = 0.1011	1.3665 ± 0.0004
x1 = 0.1992	1.3878 ± 0.0004
x1 = 0.301	1.403 ± 0.0004
x1 = 0.4023	1.4144 ± 0.0004
x1 = 0.4995	1.4212 ± 0.0004
x1 = 0.6524	1.4316 ± 0.0004
x1 = 0.7993	1.4365 ± 0.0004
x1 = 0.8988	1.4398 ± 0.0004
